Data set [1] deals with CYP2C9. The note with it: 2019, cited from earlier work.
Data set [2] relates to cyp2b1. Further details: method as in Ma et al., 2015. As to conditions: in rats; ref Ma et al., 2015; cited from earlier work.
The subject of data set [3] is cytochrome P450 (CYP) enzymes. More on the design: method as in Dungo et al., 2013. The note with it: ref Dungo et al., 2013; cited from earlier work.
The subject of data set [4] is CYP2D6. As to conditions: cited from earlier work.
A short description of data set [5]: Pharmacokinetics of probe substrates in rats with or without poziotinib pre-treatment. As to conditions: for CL/F: CLz/F; for MRT last: MRT(0–t); for MRT inf: MRT(0–∞); for Vd/F: Vz/F; for half-life: t1/2z. Here is the method:
Samples were analyzed by a UPLC-MS/MS system equipped with a triple quadrupole mass spectrometer (Waters Corp., Milford, MA, United States) and Acquity UPLC BEH C18 column (1.7 μm, 2.1 × 50 mm) at 40°C. The mobile phase consisted of acetonitrile (A) and 0.1% formic acid (B) with a linear gradient elution at 0.4 ml/min for 3 min.
Twelve male Sprague-Dawley rats (230 ± 20 g) were randomly divided into treated and control groups, with 6 in each group. […] The supernatant was mixed with 200 μL of acetonitrile and 20 μL of 0.5 μg/ml diazepam (IS), vortexed for 30 s, centrifuged at 13,000 rpm for 5 min, and the supernatant was injected into the UPLC-MS/MS system for analysis.
Pharmacokinetic parameters were calculated using DAS software (Version 3.2.8). SPSS software (version 16.0; SPSS Inc., Chicago, IL, United States) was used to analyze the significance of differences between the main pharmacokinetic parameters. p < 0.05 was considered statistically significant. GraphPad (version 8.0; GraphPad Software Inc., San Diego, CA, United States) was used to calculate IC50 and plot the plasma concentration-time curves and inhibition plots (type of inhibition, time- and concentration-dependence).

[6] abbreviates: male, Sprague-Dawley, rat, in vivo, po, 10 mg/kg, Control group: oral probe cocktail only (10 mg/kg; tolbutamide 1 mg/kg), rats, n = 6.
Setting [7] is: male, Sprague-Dawley, rat, in vivo, po, 10 mg/kg, Treated group: oral probe cocktail (10 mg/kg; tolbutamide 1 mg/kg) after 7 days oral poziotinib 5 mg/kg, rats, n = 6.
Where [8] appears, read: rats, poziotinib 5 mg/kg 7 days vs probes only.
The mark [9] stands for this setting: male, Sprague-Dawley, rat, in vivo, po, 10 mg/kg.
The mark [10] stands for this setting: male, Sprague-Dawley, rat, plasma, po, 10 mg/kg, Control group: oral probe cocktail only (10 mg/kg; tolbutamide 1 mg/kg), rats, n = 6.
Where [11] appears, read: male, Sprague-Dawley, rat, plasma, po, 10 mg/kg, Treated group: oral probe cocktail (10 mg/kg; tolbutamide 1 mg/kg) after 7 days oral poziotinib 5 mg/kg, rats, n = 6.
Where [12] appears, read: rats, poziotinib 5 mg/kg 7 days vs probes only (Discussion).

In the case of `C#Cc1cccc(Nc2ncnc3cc(OCCOC)c(OCCOC)cc23)c1` [Erlotinib], the “effect on metabolism of warfarin, a CYP2C9 substrate” value in data set [1] (in human, ref Hiraide et al.) is recorded as “inhibit warfarin metabolism”. For the same compound, the “effect on cyp2b1 activity” value in data set [2] was “may inhibit”.

`CN(C)C/C=C/C(=O)Nc1cc2c(Nc3ccc(F)c(Cl)c3)ncnc2cc1O[C@H]1CCOC1` [Afatinib]: the “inhibition or induction of CYP enzymes” value in data set [3] was “no inhibition or induction”.

With `COc1cc2ncnc(Nc3ccc(F)c(Cl)c3)c2cc1NC(=O)/C=C/CN1CCCCC1` [dacomitinib], the “effect on CY2D6” value in data set [4] (ref Shirley, 2018) is “potent inhibitor”.

With `COc1cc2ncnc(Nc3ccc(F)c(Cl)c3)c2cc1OCCCN1CCOCC1` [Gefitinib], the “effect on CYP2C9” value in data set [1] (ref Prommer, 2004, Hiraide et al.) was “inhibit”. Further, in data set [4] (ref Prommer, 2004, Hiraide et al., 2019), the “effect on CYP2D6” value is recorded as “inhibit”.

Usually AUC(0-t) stands for exposure summed from dosing to a finite time, without extrapolation to infinity. For orientation: AUC(0-inf) means total exposure, with the tail of the curve extrapolated. As a reminder, the CL/F is the apparent clearance, not corrected for the fraction that reaches the circulation. What is called Cmax is the highest concentration seen after dosing. A word on the MRT last: it is a mean duration of stay, worked out from the concentration-time curve. A word on the MRT inf: it is a mean duration of stay, worked out from the concentration-time curve. By Tmax is commonly meant the time at which the peak concentration occurs. The term Vd/F denotes the apparent distribution volume after extravascular dosing. Broadly, the half-life is how long it takes for the measured level to halve. `Cc1ncc2n1-c1ccc(Cl)cc1C(c1ccccc1F)=NC2` [Midazolam]: in data set [5] (male, Sprague-Dawley, rat, in vivo, po, 10 mg/kg, AUC(0–t), Control group: oral probe cocktail only (10 mg/kg; tolbutamide 1 mg/kg), rats, n = 6), the area under the curve AUC(0-t) came out at 1350 ng·h/mL. Moreover, in data set [5] (male, Sprague-Dawley, rat, in vivo, po, 10 mg/kg, AUC(0–t), Treated group: oral probe cocktail (10 mg/kg; tolbutamide 1 mg/kg) after 7 days oral poziotinib 5 mg/kg, rats, n = 6), the area under the curve AUC(0-t) is 1280 ng·h/mL. In addition, in data set [5] (setting [6]), the AUC(0-inf) turned out to be 1360 ng·h/mL, the CL/F is 128 mL/min/kg, the Cmax turned out to be 868 ± 251 ng/mL and the mean residence time MRT last is 1.58 ± 0.23 h. For the same compound, in data set [5] (setting [6]), the MRT inf worked out at 1.62 ± 0.24 h, the Vd/F is 18.6 ± 5.95 L/kg and the half-life was 1.7 ± 0.55 h. Besides, in data set [5] (setting [7]), the area under the curve AUC(0-inf) came to 1310 ng·h/mL, the CL/F was 139 mL/min/kg, the Cmax stood at 582 ± 296 ng/mL and the MRT last worked out at 2.01 ± 0.43 h. In data set [5] (setting [7]), the mean residence time MRT inf was 2.44 ± 1.12 h, the Vd/F was 32.8 ± 20.8 L/kg and the half-life is 2.67 ± 1.39 h. For the same compound, the time to peak (Tmax) in data set [5] (male, Sprague-Dawley, rat, in vivo, po, 10 mg/kg, Tmax, Control group: oral probe cocktail only (10 mg/kg; tolbutamide 1 mg/kg), rats, n = 6) came out at 0.33 ± 0.13 h. Further, the Tmax in data set [5] (male, Sprague-Dawley, rat, in vivo, po, 10 mg/kg, Tmax, Treated group: oral probe cocktail (10 mg/kg; tolbutamide 1 mg/kg) after 7 days oral poziotinib 5 mg/kg, rats, n = 6) was found to be 0.58 ± 0.34 h. Also, the “difference in main pharmacokinetic parameters between treated and control group (in words)” value in data set [5] (setting [8]) is given as “not significant”.

As to `CC(NC(C)(C)C)C(=O)c1cccc(Cl)c1` (stereo not drawn) [Bupropion], in data set [5] (setting [9]), the exposure AUC(0-t) was 405 ± 87.3 ng·h/mL, the “AUC(0–∞)” value worked out at 421.07 ± 94.21 ng·h/mL, the “MRT(0–t)” value came out at 2.37 ± 0.53 h and the “MRT(0–∞)” value is given as 2.87 ± 1.15 h. Moreover, in data set [5] (setting [9]), the Tmax turned out to be 0.46 ± 0.29 h, the t1/2z amounted to 2.51 ± 1.34 h, the area under the curve AUC(0-inf) turned out to be 613 ± 130 ng·h/mL and the MRT last is 3.33 ± 0.84 h. Also, in data set [5] (setting [9]), the mean residence time (MRT inf) stood at 4.34 ± 1.58 h and the half-life was 3.35 ± 1.21 h. The Tmax in data set [5] (male, Sprague-Dawley, rat, in vivo, po, 10 mg/kg, Tmax) amounted to 0.75 ± 0.27 h. Further, in data set [5] (male, Sprague-Dawley, rat, plasma, po, 10 mg/kg), the AUC(0-t) was determined as 565 ± 92.5 ng·h/mL. In data set [5] (setting [10]), the apparent clearance (CL/F) was 412 mL/min/kg, the maximum concentration (Cmax) stood at 170 ± 60.1 ng/mL and the Vd/F stood at 85.4 ± 37.7 L/kg. Besides, in data set [5] (setting [11]), the apparent clearance CL/F is 281 mL/min/kg, the Cmax is 173 ± 60.8 ng/mL and the Vd/F amounted to 81.8 ± 38.3 L/kg. In addition, in data set [5] (setting [8]), the “AUC(0–t) fold higher in treated than control group” value was 1.39 fold, the “AUC(0–∞) fold higher in treated than control group” value amounted to 1.46 fold, the “CLz/F fold lower in treated than control group” value came out at 1.47 fold and the “MRT(0–t) fold higher in treated than control group” value is 1.41 fold. For the same compound, in data set [5] (setting [8]), the “Tmax fold higher in treated than control group” value stood at 1.63 fold and the “Vz/F fold lower in treated than control group” value was found to be 1.04 fold. Moreover, in data set [5] (setting [12]), the “AUC(0–t) of treated group as fold of control group value” is 1.40 fold and the “CLz/F of treated group as fold of control group value” was found to be 0.68 fold.

The values above are taken from paper PMC7970697, “Inhibition and Induction by Poziotinib of Different Rat Cytochrome P450 Enzymes In Vivo and in an In Vitro Cocktail Method” (Frontiers in Pharmacology, 2021).
